The results in this text go back to PubChem BioAssay (NCI).

The structures appear in SMILES notation.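 All cell lines were grown in 96-well plates and treated with compound for 48 hours. Definition used: TGI = concentration required for complete inhibition of growth.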 Where only a bound is given, the exact number is not on record here.

Some test systems named below: SK-MEL-28 melanoma; UACC-62 melanoma; SF-268 CNS; SF-295 CNS; OVCAR-5 ovarian; UO-31 renal; HOP-92 NSCLC; TK-10 renal; HCT-116 colon; NCI-H460 lung; HCC-2998 colon.
Common to all, as to test: NCI-60 cell line screen, 48 h

As for `O=C(Nn1c(-c2ccccc2)nc2ccccc2c1=O)c1ccc(Cl)cc1`, the TGI in the assay on SK-MEL-28 melanoma, with UACC-62 melanoma, in the assay with SF-268 CNS, with SF-295 CNS, in the assay with OVCAR-5 ovarian and in the assay with UO-31 renal was greater than 100 µM in each case. Further, the TGI in the assay on HOP-92 NSCLC, with TK-10 renal, in the assay on HCT-116 colon, with NCI-H460 lung and in the assay with HCC-2998 colon was greater than 100 µM throughout.

Take `C[C@@H](CC(=O)OCc1ccccc1)OC1OC(COC(=O)C(C)(C)C)C(OC(=O)C(C)(C)C)C(OC(=O)C(C)(C)C)C1OC(=O)C(C)(C)C` (some centres not stated): the TGI with SK-MEL-28 melanoma, in the assay with UACC-62 melanoma, in the assay on SF-268 CNS, in the assay with SF-295 CNS, in the assay with OVCAR-5 ovarian and in the assay on UO-31 renal was greater than 100 µM in each case. For the same compound, the TGI in the assay with HOP-92 NSCLC, in the assay with TK-10 renal, in the assay with HCT-116 colon, in the assay with NCI-H460 lung and in the assay with HCC-2998 colon was greater than 100 µM each time.

For the compound `O=C(NCCN(CCNC(=O)c1cccc(O)c1O)CCNC(=O)c1cccc(O)c1O)c1cccc(O)c1O`, the TGI in the assay on SK-MEL-28 melanoma was greater than 100 µM; in the assay with UACC-62 melanoma, 48 µM; in the assay on SF-268 CNS, greater than 100 µM; in the assay on SF-295 CNS it was greater than 100 µM; in the assay with OVCAR-5 ovarian, greater than 100 µM; in the assay with UO-31 renal, greater than 100 µM. The TGI in the assay on HOP-92 NSCLC was greater than 86.9 µM; with TK-10 renal, greater than 100 µM; with HCT-116 colon it was greater than 100 µM; in the assay on NCI-H460 lung it was greater than 51.6 µM; with HCC-2998 colon it was greater than 60.2 µM.

Regarding `COC(=O)[C@@]12OC[C@]34C([C@@H](O)C1O)[C@@]1(C)CC(=O)C(OC(=O)CC(C)C(F)(F)F)=C(C)C1C[C@H]3OC(=O)[C@H](O)[C@H]42` (some centres not stated), the TGI in the assay on SK-MEL-28 melanoma was 18.2 µM; in the assay on UACC-62 melanoma, 4.37 µM; with SF-268 CNS, 56.8 µM; with SF-295 CNS, 42.5 µM; with OVCAR-5 ovarian, greater than 62.5 µM; in the assay with UO-31 renal it was greater than 62.5 µM. Further, the TGI in the assay with HOP-92 NSCLC was 23.1 µM; in the assay with TK-10 renal it was greater than 62.5 µM; in the assay on HCT-116 colon, greater than 62.5 µM; in the assay with NCI-H460 lung, greater than 62.5 µM; in the assay with HCC-2998 colon, 11 µM.

Turning to `CC(C)C(Cl)CCC(C)(Cl)C(=O)CBr` (configuration not stated), the TGI with SK-MEL-28 melanoma worked out at 16.3 µM; with UACC-62 melanoma, 10.2 µM; in the assay on SF-268 CNS it was 56 µM; in the assay on SF-295 CNS it was 41.2 µM; with OVCAR-5 ovarian, 26.7 µM; with UO-31 renal, 15 µM. Further, the TGI was found to be 23.8 µM with HOP-92 NSCLC; 13.7 µM with TK-10 renal; 9.06 µM in the assay with HCT-116 colon; 33.4 µM in the assay with NCI-H460 lung; 33.1 µM in the assay with HCC-2998 colon.

Consider `COC(=O)/C=C(\C(=O)OC)c1cc(C)c2cc(C(C)C)ccc(C)c1-2`, for which the TGI in the assay with SK-MEL-28 melanoma, with UACC-62 melanoma, in the assay with SF-268 CNS, with SF-295 CNS, in the assay with OVCAR-5 ovarian and in the assay with UO-31 renal was greater than 100 µM each time. Also, the TGI with HOP-92 NSCLC is 77.9 µM; in the assay with TK-10 renal it was greater than 100 µM; with HCT-116 colon, greater than 100 µM; with NCI-H460 lung, greater than 100 µM; with HCC-2998 colon, 87.5 µM.

As to `COc1ccc(-c2oc3cc(-c4cc5oc(-c6ccc(OC)cc6)c(-c6ccc(OC)cc6)c5cc4OC)c(OC)cc3c2-c2ccc(OC)cc2)cc1`, the TGI in the assay on SK-MEL-28 melanoma, with UACC-62 melanoma, in the assay with SF-268 CNS, in the assay with SF-295 CNS, with OVCAR-5 ovarian and with UO-31 renal was greater than 100 µM in each case. In addition, the TGI with HOP-92 NSCLC, in the assay on TK-10 renal, with HCT-116 colon, in the assay on NCI-H460 lung and in the assay on HCC-2998 colon was greater than 100 µM in each case.

As for `CC(C)(C)OC(=O)N(CCCCNC(=O)C(F)(F)F)CCCNC(=O)C(F)(F)F`, the TGI in the assay with SK-MEL-28 melanoma, in the assay with UACC-62 melanoma, in the assay with SF-268 CNS, with SF-295 CNS, in the assay on OVCAR-5 ovarian and in the assay with UO-31 renal was greater than 100 µM in each case. Also, the TGI in the assay with HOP-92 NSCLC, with TK-10 renal, in the assay on HCT-116 colon, with NCI-H460 lung and with HCC-2998 colon was greater than 100 µM in each case.

For `CC(N)(CC(O)(C(F)(F)Cl)C(F)(F)Cl)C(=O)O` (configuration not stated), the TGI in the assay on SK-MEL-28 melanoma, with UACC-62 melanoma, in the assay on SF-268 CNS, in the assay on SF-295 CNS, with OVCAR-5 ovarian and in the assay with UO-31 renal was greater than 10 µM in each case. In addition, the TGI in the assay on HOP-92 NSCLC, in the assay on TK-10 renal, in the assay with HCT-116 colon, with NCI-H460 lung and in the assay with HCC-2998 colon was greater than 10 µM each time.

With `Clc1ccc(C=Nc2ccc(Oc3ccc(Cl)cc3)c(Cl)c2)cc1`, the TGI in the assay with SK-MEL-28 melanoma was 61.5 µM; in the assay on UACC-62 melanoma it was 41.5 µM; with SF-268 CNS, 41.1 µM; in the assay on SF-295 CNS, 37.7 µM; in the assay on OVCAR-5 ovarian, greater than 100 µM; with UO-31 renal, 24.8 µM. The TGI is 41 µM in the assay with HOP-92 NSCLC; greater than 100 µM in the assay on TK-10 renal; 36.2 µM in the assay with HCT-116 colon; 44.5 µM in the assay with NCI-H460 lung; 45.6 µM with HCC-2998 colon.

Take `CCOC(=O)c1c2c(n(-c3ccc(C)cc3)c1C)-c1ccccc1C(=O)C2(C(=O)OCC)C(=O)OCC`: the TGI in the assay with SK-MEL-28 melanoma is greater than 85.5 µM; in the assay on UACC-62 melanoma, greater than 91.8 µM; with SF-268 CNS, greater than 91.9 µM; in the assay with SF-295 CNS, greater than 100 µM; in the assay on OVCAR-5 ovarian, greater than 100 µM; in the assay with UO-31 renal, greater than 100 µM. The TGI in the assay with HOP-92 NSCLC is 88.6 µM; in the assay on TK-10 renal it was greater than 100 µM; in the assay on HCT-116 colon, greater than 72.9 µM; in the assay with NCI-H460 lung, 98.5 µM; in the assay with HCC-2998 colon, 69.9 µM.

Regarding `COc1ccc(CCCCNCc2cccc(CNCCCCc3ccc(OC)cc3)c2)cc1`, the TGI came to 3.73 µM in the assay on SK-MEL-28 melanoma; 3.55 µM with UACC-62 melanoma; 3.35 µM with SF-268 CNS; 3.77 µM with SF-295 CNS; 4.33 µM with OVCAR-5 ovarian; 2.68 µM in the assay with UO-31 renal. Further, the TGI is 2.91 µM in the assay with HOP-92 NSCLC; 5.02 µM in the assay on TK-10 renal; 3.88 µM with HCT-116 colon; greater than 19.7 µM in the assay on NCI-H460 lung; 0.922 µM in the assay with HCC-2998 colon.
